Test results: article PMC11204923, “Marine Cytotoxin Santacruzamate A Derivatives as Potent HDAC1-3 Inhibitors and Their Synergistic Anti-Leukemia Effects with Venetoclax” (Marine Drugs, 2024)

Key:
MV4-11 cells [1] = assay: Western blot analysis; assay type: cell-based; settings: 24 h
Method: MV4-11 cells were inoculated into 12-well plates at a density of 800,000 cells/mL. After incubation overnight, each well was treated with different concentrations of 25c and Venetoclax alone or in combination. After treatment for 24 h, the cells were collected and washed with pre-cooled PBS. A protease inhibitor (cocktail) and RIPA buffer were added for cell lysis. The decomposed solution was centrifuged at 12,000 rpm for 15 min at 4 °C, and the extracted protein was located in the supernatant. The proteins in each sample were denatured by heating at 100 °C in loading buffer (5×) for 10 min. The same amount of proteins in each sample was separated by SDS-PAGE and then electrotransferred to a PVDF membrane (Merck Millipore, Billerica, MA, USA) and enclosed in 5% skim milk powder for 1 h. The primary antibody diluted with an immune response booster solution was incubated in a shaking bed at 4 °C overnight, and the horseradish (HRP)-conjugated second antibody diluted with 5% skim milk powder was incubated at room temperature for 1 h on the second day. After the PVDF membrane was washed with TBST, the target protein bands could be detected with chemiluminescent reagents (Millipore, Billerica, MA, USA) and visualized in the Tanon 5200 + fluorescence imager.
The primary antibodies Caspase 3 (including Cleaved Caspase-3) (sc-56053), Mcl-1 (94296S), Bcl-xL (ab98143), γ-H2AX (9718S), AcHH3 (Lys27) (8173S), AcHH4 (sc-377520), HH3 (ab1791), Ac-tubulin (sc-23950), HDAC6 (sc-28386), α-tubulin (sc-23948), GAPDH (sc-59540) and β-actin (8H10D10) were purchased from Abcam, Cell Signaling Technology and Santa Cruz Biotechnology.

HDAC9 = target: T1, HDAC9 (Homo sapiens, UniProt Q9UKV0); assay: In vitro HDAC inhibition fluorescence assay, HDAC9; assay type: biochemical
T1 construct: purchased BPS Bioscience
T1 sequence (Q9UKV0 whole entry): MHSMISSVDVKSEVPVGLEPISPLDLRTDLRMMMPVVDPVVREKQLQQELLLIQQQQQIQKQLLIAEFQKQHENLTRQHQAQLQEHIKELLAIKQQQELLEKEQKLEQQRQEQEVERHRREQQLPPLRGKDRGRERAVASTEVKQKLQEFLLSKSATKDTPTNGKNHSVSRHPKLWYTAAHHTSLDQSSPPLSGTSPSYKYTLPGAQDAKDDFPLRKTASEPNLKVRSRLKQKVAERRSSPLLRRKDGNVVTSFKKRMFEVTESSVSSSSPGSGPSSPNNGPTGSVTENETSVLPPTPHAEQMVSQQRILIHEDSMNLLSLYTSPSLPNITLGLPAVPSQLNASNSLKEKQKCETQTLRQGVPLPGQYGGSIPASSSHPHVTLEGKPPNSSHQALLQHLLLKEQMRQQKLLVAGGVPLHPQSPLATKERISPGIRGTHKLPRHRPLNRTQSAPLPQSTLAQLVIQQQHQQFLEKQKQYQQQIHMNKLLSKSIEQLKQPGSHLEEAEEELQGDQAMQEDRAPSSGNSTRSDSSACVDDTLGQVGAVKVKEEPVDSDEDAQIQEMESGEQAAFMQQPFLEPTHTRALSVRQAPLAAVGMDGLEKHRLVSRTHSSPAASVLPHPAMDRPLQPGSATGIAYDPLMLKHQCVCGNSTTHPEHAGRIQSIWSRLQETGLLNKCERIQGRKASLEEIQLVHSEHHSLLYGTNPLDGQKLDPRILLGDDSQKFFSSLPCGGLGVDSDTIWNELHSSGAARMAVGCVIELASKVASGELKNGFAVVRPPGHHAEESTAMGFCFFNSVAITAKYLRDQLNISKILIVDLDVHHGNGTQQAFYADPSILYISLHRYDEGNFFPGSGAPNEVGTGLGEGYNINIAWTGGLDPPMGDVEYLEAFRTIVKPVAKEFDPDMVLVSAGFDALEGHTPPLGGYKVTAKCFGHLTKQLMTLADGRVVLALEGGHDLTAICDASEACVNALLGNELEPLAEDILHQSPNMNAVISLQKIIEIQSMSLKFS
Method: (§1) All of the HDAC enzymes were purchased from BPS Bioscience. In vitro HDAC inhibition assays were conducted as previously described. In brief, 20 μL of recombinant HDAC enzyme solution (HDAC1-9, 11) was mixed with various concentrations of the tested compound (20 μL). The mixture was incubated at 37 °C for 1 h, and then, 10 μL of fluorogenic substrate (Boc-Lys (acetyl)-AMC for HDAC1, 2, 3 and 6; Boc-Lys (trifluoroacetyl)AMC for HDAC4, 5, 7, 8, 9 and 11) was added to achieve a final concentration of 50 μM. After incubation at 37 °C for 2 h, the catalysis was stopped by the addition of 10 μL of developer containing 30 mg/mL trypsin and 6 μM trichostatin A (TSA). Then, 30 min later, the fluorescence intensity was measured using a microplate reader at excitation and emission wavelengths of 360 and 460 nm, respectively. The inhibition ratios were calculated from the fluorescence intensity readings of tested wells relative to those of control wells, and the IC50 curves and values were determined by GraphPad Prism 6.0, using the “log(inhibitor) vs. normalized response-variable slope” function.

MV4-11 cells [2] = assay: Microdilution checkerboard assay, 25c combined with Venetoclax; assay type: cell-based; settings: Homo sapiens, 72 h, read-out: Inhibition Rate (%)
Method: The inhibition effect of 25c combined with Venetoclax on the proliferation of MV4-11 cells was determined by microdilution checkerboard assay. CompuSyn software was used to calculate the combined action index of the two compounds, and the cell inhibition rates of the two compounds acting alone and the combined action were input to calculate the combination index (CI) to evaluate the synergistic effect of the drugs. A CI value less than 1 indicates a synergistic effect, a CI value equal to 1 indicates an additive effect and a CI value greater than 1 indicates an antagonistic effect.

HDAC8 = target: T2, HDAC8 (Homo sapiens, UniProt Q9BY41); assay: In vitro HDAC inhibition fluorescence assay, HDAC8; assay type: biochemical
T2 construct: purchased BPS Bioscience
T2 sequence (Q9BY41 1-377): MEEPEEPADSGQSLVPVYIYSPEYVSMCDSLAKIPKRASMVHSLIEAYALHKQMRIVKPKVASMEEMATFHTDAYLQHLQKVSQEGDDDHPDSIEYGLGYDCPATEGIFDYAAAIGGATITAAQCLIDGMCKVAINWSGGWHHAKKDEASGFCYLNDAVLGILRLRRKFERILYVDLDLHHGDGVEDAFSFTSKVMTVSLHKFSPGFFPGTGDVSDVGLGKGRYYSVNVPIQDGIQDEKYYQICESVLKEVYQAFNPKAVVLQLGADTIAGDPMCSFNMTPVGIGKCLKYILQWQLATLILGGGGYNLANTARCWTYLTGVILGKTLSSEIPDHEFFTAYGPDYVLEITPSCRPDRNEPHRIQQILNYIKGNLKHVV
Method: as §1

MV4-11 cells [3] = assay: Cell viability assay (resazurin), MV4-11; assay type: cell-based; settings: Homo sapiens, MV4-11, 72 h; read-out: IC50 anti-proliferative activity MV4-11
Method: The AML cell lines MV4-11, THP-1, KASUMI-1 and HL-60 were purchased from Procell Life Science & Technology Co., Ltd. (Wuhan, China). THP-1 and KASUMI-1 were cultured in RPMI-1640 complete medium containing 10% fetal bovine serum and 1% penicillin and streptomycin. MV4-11 was cultured in IMDM complete medium containing 10% fetal bovine serum and 1% penicillin and streptomycin. HL-60 was cultured in IMDM complete medium containing 20% fetal bovine serum and 1% penicillin and streptomycin. All cell lines were cultured in an incubator with humidity set at 95%, temperature at 37 °C and 5% CO2.
MV4-11, THP-1, KASUMI-1 and HL-60 cells were plated in 96-well transparent plates (10,000 to 15,000 cells/100 μL) and after incubation overnight, cells were treated with gradient-diluted inhibitors with several concentrations. After the cells were incubated with inhibitors for 72 h, 1 mg/mL of Resazurin (Sigma-Aldrich, Saint Louis, MO, USA) was added (working concentration was 0.1 mg/mL). After incubation at 37 °C for about 3 h, the fluorescence intensity of […] was measured at 560 nm/590 nm (excitation/emission) with a Spectra Max i3 Microplate Reader, and the cell viability was determined. The IC50 curve was drawn using GraphPad Prism 9.5 software.

## CCCNNC(=O)C=Cc1ccc(CNCCc2ccccc2)cc1 [Compound 25c, 3-(4-((Phenethylamino)methyl)phenyl)-N′-propylacrylohydrazide]
MV4-11 cells [1]; 25c monotherapy, 30 nM and 90 nM
  level of cleaved-caspase3: No substantial alterations
MV4-11 cells [1]
  level of acetyl-tubulin: increased
  level of acetylated histone H3 (AcHH3): significantly elevated
  level of acetylated histone H4 (AcHH4): significantly elevated
HDAC9
  IC50: > 10 µM
MV4-11 cells [2]; 25c 0.13 μM alone
  inhibition at 0.13 µM: 15.8%
MV4-11 cells [2]; 25c 0.19 μM alone
  inhibition at 0.19 µM: 33.9%
MV4-11 cells [2]; 25c 0.28 μM alone
  inhibition at 0.28 µM: 69.8%
HDAC8
  IC50: 4.11 ± 0.63 µM
MV4-11 cells [3]
  IC50: 0.34 ± 0.117 µM
